Common to all, as to assay type: in vivo
In one test the test system is Dandelion. Description: Pre-emergence bio-efficacy, weed control 85 DAT. Particulars: 85 days after treatment, G ai: imazamox 105, rimsulfuron 70, pendimethalin 4270, mesotrione 210. As for the experimental part: (§1) Experiments were carried out to evaluate the bio-efficacy of the herbicidal combinations according to the present disclosure. The herbicides were applied at the pre-emergence stage. The results have been disclosed in Tables 1-5.
(§2) Weeds: Common Velvetgrass, Broadleaf spp., Red Sorrel, Dandelion, Geranium spp.

A further test relates to Red Sorrel. In words: Pre-emergence bio-efficacy, weed control 85 DAT. Particulars: 85 days after treatment, G ai: imazamox 105, rimsulfuron 70, pendimethalin 4270, mesotrione 210. As for the experimental part:
as §1, §2

The test system of another test is Geranium spp. Description: Pre-emergence bio-efficacy, weed control 85 DAT. Particulars: 85 days after treatment, G ai: imazamox 105, rimsulfuron 70, pendimethalin 4270, mesotrione 210. As for the experimental part:
as §1, §2

A further test concerns Common Ragweed. In words: Pre-emergence bio-efficacy, weed control 27 DAT. Particulars: 27 days after treatment, G ai: imazamox 105, rimsulfuron 70, pendimethalin 4270, mesotrione 210. As for the experimental part: as §1
(§3) Weeds: Giant Foxtail, Common Ragweed, Galinsoga, Yellow Nutsedge

A further test concerns Yellow Nutsedge. In words: Pre-emergence bio-efficacy, weed control 27 DAT. Particulars: 27 days after treatment, G ai: imazamox 105, rimsulfuron 70, pendimethalin 4270, mesotrione 210. As for the experimental part:
as §1, §3

Another test has as its system Giant Foxtail. In words: Pre-emergence bio-efficacy, weed control 27 DAT. Particulars: 27 days after treatment, G ai: imazamox 105, rimsulfuron 70, pendimethalin 4270, mesotrione 210. As for the experimental part: as §1, §3
The subject of the next test is Galinsoga. In words: Pre-emergence bio-efficacy, weed control 27 DAT. Particulars: 27 days after treatment, G ai: imazamox 105, rimsulfuron 70, pendimethalin 4270, mesotrione 210. As for the experimental part:
as §1, §3

For `CS(=O)(=O)c1ccc(C(=O)C2C(=O)CCCC2=O)c([N+](=O)[O-])c1` [Mesotrione], in the test with Dandelion, the “Control 85 DAT (%) Dandelion” value stood at 8%. For the same molecule, in the test with Red Sorrel, the “Control 85 DAT (%) Red Sorrel” value amounted to 8%. For the same molecule, in the test on Geranium spp., the “Control 85 DAT (%) Geranium spp.” value is recorded as 5%.
Consider `COCc1cnc(C2=NC(C)(C(C)C)C(=O)N2)c(C(=O)O)c1` (stereo not shown) [Imazamox], for which the “Control 85 DAT (%) Dandelion” value with Dandelion is recorded as 5%. For the same molecule, the “Control 85 DAT (%) Red Sorrel” value with Red Sorrel turned out to be 13%. The “Control 85 DAT (%) Geranium spp.” value in the test on Geranium spp. amounted to 8%. The “Control 27 DAT (%) Common Ragweed” value with Common Ragweed is 63%. Moreover, in the test with Yellow Nutsedge, the “Control 27 DAT (%) Yellow Nutsedge” value was 40%. In addition, the “Control 27 DAT (%) Giant Foxtail” value in the test with Giant Foxtail worked out at 58%. The “Control 27 DAT (%) Galinsoga” value in the test on Galinsoga is recorded as 53%.
`CCS(=O)(=O)c1cccnc1S(=O)(=O)NC(=O)Nc1nc(OC)cc(OC)n1` [Rimsulfuron]: in the test on Dandelion, the “Control 85 DAT (%) Dandelion” value turned out to be 45%. In addition, the “Control 85 DAT (%) Red Sorrel” value with Red Sorrel came to 18%. In the test on Geranium spp., the “Control 85 DAT (%) Geranium spp.” value is on record as 28%.
On to `CCC(CC)Nc1c([N+](=O)[O-])cc(C)c(C)c1[N+](=O)[O-]` [Pendimethalin], for which, in the test with Dandelion, the “Control 85 DAT (%) Dandelion” value is on record as 20%. Besides, the “Control 85 DAT (%) Red Sorrel” value in the test on Red Sorrel amounted to 15%. In the test with Geranium spp., the “Control 85 DAT (%) Geranium spp.” value is recorded as 18%.

(Values after patent publication US20230284618A1, “HERBICIDAL COMBINATIONS” (UPL Corporation Limited, priority 2022, published 2023).)
